The results in this text go back to patent publication US8222404B2, “[1,2,4]Thiadiazin-3-yl acetic acid compound and methods of making the acetic acid compound” (Anadys Pharmaceuticals, Inc., priority 2008, dated 2012).

Bounds are passed on as bounds.

For this assay, the system named is HCV Huh-luc/neo-ET replicon cells. Nature of the assay: Luciferase-Based HCV Replicon Assay (EC50 (1b)). Type of assay: cell-based. The settings on record: Hepatitis C virus, 72 hours exposure, luciferase activity. As to the method: Luciferase-Based HCV Replicon Assay Protocol (EC50 (1b))
The cell culture component of the assay was performed essentially as described by Bartenschlager et al., Hepatology 2002, 35, 694-703, wherein exponentially growing HCV Huh-luc/neo-ET replicon cells were seeded at 6×10^3 cells/well in 96 well assay plate. 24 hours later the cells were treated with various concentrations of compound in triplicate. After 72 hours exposure to the compound, the luciferase activity in the wells was determined using Bright-Glo reagent (Promega, Madison, Wis.) with a luminometer (Wallac 1420 Multilabel HTS Counter Victor 2). The background control was replicon cells treated with 100 nM BILN-2061, an inhibitor of the HCV protease. % Inhibition was determined for each compound concentration in relation to the negative (no compound) control to calculate the EC50 (1b).
(In general: Replicon systems follow genome replication, usually without infectious particles.)

As usually defined, the EC50 is the concentration at which the effect is half-maximal. Read a high EC50 as lower potency in that assay. `CS(=O)(=O)NCc1csc2c1S(=O)(=O)N=C(C1=C(O)C3CCCCC3N(Cc3ccccc3)C1=O)N2` (racemic) [Example 130, (rac-cis)-N-[3-(1-Benzyl-4-hydroxy-2-oxo-1,2,4a,5,6,7,8,8a-octahydro-quinolin-3-yl)-1,1-dioxo-1,4-dihydro-1λ^6-thieno[2,3-e][1,2,4]thiadiazin-7-ylmethyl]-methanesulfonamide] returned an EC50 of 100 to 1000 nM.

In the case of `CC(C)(C)CCN1C(=O)C(C2=NS(=O)(=O)c3c(CNS(C)(=O)=O)csc3N2)=C(O)C2C3CCC(O3)C21` (racemic) [Example 62, (rac-di-exo)-N-{3-[3-(3,3-Dimethyl-butyl)-6-hydroxy-4-oxo-11-oxa-3-aza-tricyclo[6.2.1.0^2,7]undec-5-en-5-yl]-1,1-dioxo-1,4-dihydro-1λ^6-thieno[2,3-e][1,2,4]thiadiazin-7-ylmethyl}-methanesulfonamide], the EC50 is 5 to 20 nM.

`CS(=O)(=O)NCc1csc2c1S(=O)(=O)N=C(C1=C(O)[C@@H]3[C@H]4CC[C@H](C4)[C@@H]3N(Cc3ccc(F)c(F)c3)C1=O)N2` [Example 88, N-{3-[(1R,2S,7R,8S)-3-(3,4-Difluoro-benzyl)-6-hydroxy-4-oxo-3-aza-tricyclo[6.2.1.0^2,7]undec-5-en-5-yl]-1,1-dioxo-1,4-dihydro-1λ^6-thieno[2,3-e][1,2,4]thiadiazin-7-ylmethyl}-methanesulfonamide]: the EC50 is at most 5 nM.

Molecule `CC(C)(C)CCN1C(=O)C(C2=NS(=O)(=O)c3c(CNS(C)(=O)=O)csc3N2)=C(O)[C@@H]2CCC[C@@H]21` [Example 129, (4aR,7aS)-N-{3-[1-(3,3-Dimethyl-butyl)-4-hydroxy-2-oxo-2,4a,5,6,7,7a-hexahydro-1H-[1]pyrindin-3-yl]-1,1-dioxo-1,4-dihydro-1λ^6-thieno[2,3-e][1,2,4]thiadiazin-7-ylmethyl}-methanesulfonamide] came in with an EC50 of 5 to 20 nM.

As to `CS(=O)(=O)NCc1csc2c1S(=O)(=O)N=C(C1=C(O)C3CCCCC3N(Cc3ccc(F)c(F)c3)C1=O)N2` (racemic) [Example 134, (rac-cis)-N-{3-[1-(3,4-Difluoro-benzyl)-4-hydroxy-2-oxo-1,2,4a,5,6,7,8,8a-octahydro-quinolin-3-yl]-1,1-dioxo-1,4-dihydro-1λ^6-thieno[2,3-e][1,2,4]thiadiazin-7-ylmethyl}-methanesulfonamide], the concentration for a half-maximal effect (EC50) was above 1000 nM.

`NS(=O)(=O)NCc1csc2c1S(=O)(=O)N=C(C1=C(O)[C@@H]3[C@H]4CC[C@H](C4)[C@@H]3N(Cc3ccc(F)cc3)C1=O)N2` [Example 34, N-{3-[(1R,2S,7R,8S)-3-(4-Fluoro-benzyl)-6-hydroxy-4-oxo-3-aza-tricyclo[6.2.1.0^2,7]undec-5-en-5-yl]-1,1-dioxo-1,4-dihydro-1λ^6-thieno[2,3-e][1,2,4]thiadiazin-7-ylmethyl}-sulfamide]: the EC50 lay within 100 to 1000 nM.

For the molecule `CS(=O)(=O)NCc1csc2c1S(=O)(=O)N=C(C1=C(O)[C@@H]3[C@H]4CC[C@H](C4)[C@@H]3N(CCC3CC3)C1=O)N2` [Example 106, N-{3-[(1R,2S,7R,8S)-3-(2-Cyclopropyl-ethyl)-6-hydroxy-4-oxo-3-aza-tricyclo[6.2.1.0^2,7]undec-5-en-5-yl]-1,1-dioxo-1,4-dihydro-1λ^6-thieno[2,3-e][1,2,4]thiadiazin-7-ylmethyl}-methanesulfonamide], the EC50 fell in the range of 5 to 20 nM.

For `CS(=O)(=O)NCc1csc2c1S(=O)(=O)N=C(C1=C(O)C3CCCCC3NC1=O)N2` (racemic) [Example 86, (rac-cis)-N-[3-(4-Hydroxy-2-oxo-1,2,4a,5,6,7,8,8a-octahydro-quinolin-3-yl)-1,1-dioxo-1,4-dihydro-1λ^6-thieno[2,3-e][1,2,4]thiadiazin-7-ylmethyl]-methanesulfonamide], the EC50 was above 1000 nM.

For `CS(=O)(=O)NCc1csc2c1S(=O)(=O)N=C(C1=C(O)[C@@H]3CCC[C@@H]3N(Cc3ccc(F)cc3)C1=O)N2` [Example 110, (4aR,7aS)-N-{3-[1-(4-Fluoro-benzyl)-4-hydroxy-2-oxo-2,4a,5,6,7,7a-hexahydro-1H-[1]pyrindin-3-yl]-1,1-dioxo-1,4-dihydro-1λ^6-thieno[2,3-e][1,2,4]thiadiazin-7-ylmethyl}-methanesulfonamide], the EC50 lay in the range of 5 to 20 nM.

`CS(=O)(=O)NCc1csc2c1S(=O)(=O)N=C(C1=C(O)[C@@H]3[C@@H]4CC[C@@H](C4)[C@@H]3N(Cc3ccc(F)cc3F)C1=O)N2` [Example 40, N-{3-[(1S,2S,7R,8R)-3-(2,4-Difluoro-benzyl)-6-hydroxy-4-oxo-3-aza-tricyclo[6.2.1.0^2,7]undec-5-en-5-yl]-1,1-dioxo-1,4-dihydro-1λ^6-thieno[2,3-e][1,2,4]thiadiazin-7-ylmethyl}-methanesulfonamide] displayed an EC50 of 20 to 100 nM.

On to `O=C1C(C2=NS(=O)(=O)c3c(CNS(=O)(=O)C4CC4)csc3N2)=C(O)[C@@H]2[C@H]3CC[C@H](C3)[C@@H]2N1Cc1ccc(F)cc1` [Example 33, Cyclopropanesulfonic acid {3-[(1R,2S,7R,8S)-3-(4-fluoro-benzyl)-6-hydroxy-4-oxo-3-aza-tricyclo[6.2.1.0^2,7]undec-5-en-5-yl]-1,1-dioxo-1,4-dihydro-1λ^6-thieno[2,3-e][1,2,4]thiadiazin-7-ylmethyl}-amide], for which the EC50 fell in the range of 5 to 20 nM.

Take `CS(=O)(=O)NCc1csc2c1S(=O)(=O)N=C(C1=C(O)[C@@H]3[C@H]4CC[C@H](C4)[C@@H]3N(Cc3ccc(F)c(Cl)c3)C1=O)N2` [Example 37, N-{3-[(1R,2S,7R,8S)-3-(3-Chloro-4-fluoro-benzyl)-6-hydroxy-4-oxo-3-aza-tricyclo[6.2.1.0^2,7]undec-5-en-5-yl]-1,1-dioxo-1,4-dihydro-1λ^6-thieno[2,3-e][1,2,4]thiadiazin-7-ylmethyl}-methanesulfonamide]: the EC50 fell in the range of 5 to 20 nM.

On to `CS(=O)(=O)NCc1csc2c1S(=O)(=O)N=C(C1=C(O)C3C4CCC(CC4)C3N(CCC3CC3)C1=O)N2` (centres unmarked) [Example 108, N-{3-[3-(2-Cyclopropyl-ethyl)-6-hydroxy-4-oxo-3-aza-tricyclo[6.2.2.0^2,7]dodec-5-en-5-yl]-1,1-dioxo-1,4-dihydro-1λ^6-thieno[2,3-e][1,2,4]thiadiazin-7-ylmethyl}-methanesulfonamide], for which the EC50 is 5 to 20 nM.

As for `CS(=O)(=O)NCc1csc2c1S(=O)(=O)N=C(C1=C(O)C3CCCCCC3N(Cc3ccc(F)c(F)c3)C1=O)N2` (racemic) [Example 137, (rac-cis)-N-{3-[1-(3,4-Difluoro-benzyl)-4-hydroxy-2-oxo-2,4a,5,6,7,8,9,9a-octahydro-1H-cyclohepta[b]pyridin-3-yl]-1,1-dioxo-1,4-dihydro-1λ^6-thieno[2,3-e][1,2,4]thiadiazin-7-ylmethyl}-methanesulfonamide], the concentration giving a half-maximal response (EC50) fell in the range of 100 to 1000 nM.

Molecule `CS(=O)(=O)NCc1csc2c1S(=O)(=O)N=C(C1=C(O)[C@@H]3CCC[C@@H]3NC1=O)N2` [Example 85, (4aR,7aS)-N-[3-(4-Hydroxy-2-oxo-2,4a,5,6,7,7a-hexahydro-1H-[1]pyrindin-3-yl)-1,1-dioxo-1,4-dihydro-1λ^6-thieno[2,3-e][1,2,4]thiadiazin-7-ylmethyl]-methanesulfonamide] came in with an EC50 above 1000 nM.

`CS(=O)(=O)NCc1csc2c1S(=O)(=O)N=C(C1=C(O)[C@@H]3[C@@H]4CC[C@@H](C4)[C@@H]3N(Cc3ccc(F)c(F)c3)C1=O)N2` [Example 41, N-{3-[(1S,2S,7R,8R)-3-(3,4-Difluoro-benzyl)-6-hydroxy-4-oxo-3-aza-tricyclo[6.2.1.0^2,7]undec-5-en-5-yl]-1,1-dioxo-1,4-dihydro-1λ^6-thieno[2,3-e][1,2,4]thiadiazin-7-ylmethyl}-methanesulfonamide] yielded an EC50 of 5 to 20 nM.

In turn, `CS(=O)(=O)NCc1csc2c1S(=O)(=O)N=C(C1=C(O)C3CCCC3N(NC3CCC3)C1=O)N2` (racemic) [Example 27, (rac-cis)-N-[3-(1-cyclobutylamino-4-hydroxy-2-oxo-2,4a,5,6,7,7a-hexahydro-1H-[1]pyrindin-3-yl)-1,1-dioxo-1,4-dihydro-1λ^6-thieno[2,3-e][1,2,4]thiadiazin-7-ylmethyl]-methanesulfonamide] displayed an EC50 above 1000 nM.

`CS(=O)(=O)NCc1csc2c1S(=O)(=O)N=C(C1=C(O)[C@@H]3[C@H]4CC[C@H](C4)[C@@H]3N(CC3CCCCC3)C1=O)N2` [Example 101, N-[3-((1R,2S,7R,8S)-3-Cyclohexylmethyl-6-hydroxy-4-oxo-3-aza-tricyclo[6.2.1.0^2,7]undec-5-en-5-yl)-1,1-dioxo-1,4-dihydro-1λ^6-thieno[2,3-e][1,2,4]thiadiazin-7-ylmethyl]-methanesulfonamide] had an EC50 of 20 to 100 nM.

The molecule `CC(C)CCN1C(=O)C(C2=NS(=O)(=O)c3c(CNS(C)(=O)=O)csc3N2)=C(O)[C@@H]2CCC[C@@H]21` [Example 128, (4aR,7aS)-N-{3-[4-Hydroxy-1-(3-methyl-butyl)-2-oxo-2,4a,5,6,7,7a-hexahydro-1H-[1]pyrindin-3-yl]-1,1-dioxo-1,4-dihydro-1λ^6-thieno[2,3-e][1,2,4]thiadiazin-7-ylmethyl}-methanesulfonamide] displayed an EC50 of 20 to 100 nM.

`CS(=O)(=O)NCc1csc2c1S(=O)(=O)N=C(C1=C(O)[C@@H]3[C@H]4CC[C@H](C4)[C@@H]3N(CC3(C(F)(F)F)CC3)C1=O)N2` [Example 29, N-{3-[(1R,2S,7R,8S)-6-Hydroxy-4-oxo-3-(1-trifluoromethyl-cyclopropylmethyl)-3-aza-tricyclo[6.2.1.0^2,7]undec-5-en-5-yl]-1,1-dioxo-1,4-dihydro-1λ^6-thieno[2,3-e][1,2,4]thiadiazin-7-ylmethyl}-methanesulfonamide]: the EC50 is 5 to 20 nM.
